Consider eleven compounds from ChEMBL document CHEMBL4346748, “Growth inhibition by 1-deoxy-d-allulose, a novel bioactive deoxy sugar, screened using Caenorhabditis elegans assay” (Bioorg Med Chem Lett, 2019).

For series [1], the system named is Caenorhabditis elegans. Briefly: Growth inhibition of Caenorhabditis elegans N2 assessed as body size at 42 mM incubated for 72 hrs by microscopic method relative to control. In kind it is functional.
The subject of series [2] is Caenorhabditis elegans. Briefly: Growth inhibition of Caenorhabditis elegans N2 assessed as reduction in body size incubated for 72 hrs by microscopic method. The note with it: for GI50: N2, 72 h. In kind it is functional.
Series [3] concerns Caenorhabditis elegans. The series is described as follows: Growth inhibition of Caenorhabditis elegans N2 assessed as effect on body shape at 42 mM incubated for 72 hrs by microscopic method. In kind it is functional, organism-based.
For series [4], the system named is Caenorhabditis elegans. The series is described as follows: Growth inhibition of Caenorhabditis elegans N2 assessed as reduction in body size at 9.5 mM incubated for 72 hrs in presence of D-ribose by microscopic method. In kind it is functional, organism-based.
The subject of series [5] is Caenorhabditis elegans. The series is described as follows: Growth inhibition of Caenorhabditis elegans N2 assessed as reduction in motility at 42 mM incubated for 72 hrs by microscopic method. In kind it is functional, organism-based.
For series [6], the system named is Caenorhabditis elegans. Briefly: Ratio of GI50 for D-Alu to GI50 for test compound for growth inhibition of Caenorhabditis elegans N2 assessed as reduction in body size incubated for 72 hrs by microscopic method. In kind it is functional.
The subject of series [7] is Caenorhabditis elegans. The series is described as follows: Growth inhibition of Caenorhabditis elegans N2 assessed as reduction in body size at 9.5 mM incubated for 72 hrs in presence of D-fructose by microscopic method. In kind it is functional, organism-based.
For series [8], the system named is Caenorhabditis elegans. The series is described as follows: Growth inhibition of Caenorhabditis elegans N2 assessed as reduction in body size at 9.5 mM incubated for 72 hrs in presence of up to 67 mM D-glucose by microscopic method. In kind it is functional, organism-based.
Series [9] relates to Caenorhabditis elegans. Briefly: Growth inhibition of Caenorhabditis elegans N2 assessed as effect on body size at 42 mM incubated for 72 hrs by microscopic method. In kind it is functional, organism-based.
Series [10] is described as follows: Toxicity in Caenorhabditis elegans N2 assessed as mortality at 42 mM incubated for 72 hrs by microscopic method. As to conditions: 42000 µM.

Activity calls are given as the source filed them. No cut-off for these calls is given here.

On to `CC(=O)[C@@H](O)[C@@H](O)[C@@H](O)CO`, for which the “growth inhibition (GI)” value in the series with Caenorhabditis elegans [1] was “inactive”.

For `C[C@@H](O)[C@@H](O)[C@@H](O)C(=O)CO`, the “growth inhibition (GI)” value in the series with Caenorhabditis elegans [1] is “inactive”.

Consider `O=C(CO)[C@H](O)[C@H](O)[C@H](O)CO`, for which, in the series on Caenorhabditis elegans [2], the concentration for 50% growth inhibition (GI50) came out at 52.7 mM.

For `O=C(CO)[C@H](O)[C@H](O)CCO`, in the series with Caenorhabditis elegans [1], the “growth inhibition (GI)” value was “inactive”.

For `CC(=O)[C@H](O)[C@@H](O)[C@@H](O)CO`, in the series with Caenorhabditis elegans [1], the “growth inhibition (GI)” value is “inactive”.

Regarding `CC(=O)[C@@H](O)[C@@H](O)[C@H](O)CO`, the “growth inhibition (GI)” value in the series with Caenorhabditis elegans [1] is “inactive”.

`CC(=O)[C@H](O)[C@H](O)[C@@H](O)CO`: the “growth inhibition (GI)” value with Caenorhabditis elegans [1] was “inactive”.

In the case of `CC(=O)[C@H](O)[C@H](O)[C@H](O)CO`, the “growth inhibition (GI)” value in the series on Caenorhabditis elegans [3], in the series with Caenorhabditis elegans [5], in the series with Caenorhabditis elegans [8] and in the series with Caenorhabditis elegans [9] was “Active” throughout. The “growth inhibition (GI)” value in the series with Caenorhabditis elegans [4] and with Caenorhabditis elegans [7] was “inactive” throughout. The Activity in the series with Caenorhabditis elegans [1] is given as 5.7%; in series [10] it was “Non-Toxic”. For the same compound, in the series with Caenorhabditis elegans [6], the RatioGI50 amounted to 10. Further, in the series with Caenorhabditis elegans [2], the “growth inhibition (GI)” value was “Dose-dependent effect”. Also, the 50% growth inhibitory concentration (GI50) in the series on Caenorhabditis elegans [2] was 5.4 mM.

Regarding `CC(=O)[C@H](O)[C@@H](O)[C@H](O)CO`, the “growth inhibition (GI)” value in the series with Caenorhabditis elegans [1] was “inactive”.

As for `CC(=O)[C@@H](O)[C@H](O)[C@H](O)CO`, the “growth inhibition (GI)” value in the series on Caenorhabditis elegans [1] was “inactive”.

For `CC(=O)[C@@H](O)[C@H](O)[C@@H](O)CO`, in the series on Caenorhabditis elegans [1], the “growth inhibition (GI)” value was “inactive”.

What is called GI50 is the concentration giving 50% growth inhibition.
